From patent US20120070511A1, “MITOCHONDRIAL INHIBITORS AND USES THEREOF” (priority 2009, published 2012)
Where two headings read alike, the source gives them in different places.

Legend:
Assay type in all cases: cell-based
[1] = system: MM.1S cells; experiment: Reversal of CCCP induced toxicity (trypan blue exclusion); details: 10 μM BAPTA-AM or 50 μM of Z-VAD
Protocol: A) Reversal of CCCP induced toxicity by either 10 μM BAPTA-AM or 50 μM of Z-VAD was investigated using trypan blue exclusion assays. The bars represent the average of triplicate samples +SD. B) ATP levels were assayed following 6 h of treatment with indicated concentrations of CCCP. The bars represent the average of triplicate samples +SD. C) Induction of UPR, activation of AMPK pathway and cleavage of caspase 3 was analyzed by western blots following 24 h treatment with indicated concentrations of CCCP in MM.1S and REH cell lines. β-Actin was used as a loading control. D) The quantification of phosphorylated AMPK and total AMPK bands in the previous panel was done using a Bio-Rad gel reader which employs Quality I software. The bars represent the fold increase in the ratio of p-AMPK/AMPK in treated versus untreated samples from three independent experiments +SD.
(§1) Cytotoxicity assay: Cells were incubated for 24 h at 37° C. in 5% CO2 at which time drug treatments began and continued for 24 h. At this time cells were transferred to a tube followed by centrifugation at 400 g for 5 min. The pellets were resuspended in 1 ml of Hanks solution and analyzed by Vi-Cell (Beckman Coulter, Fullerton, Calif., USA) cell viability analyzer.

[2] = system: MM cell lines (MM.1S, 8226, KMS-11)
Protocol: as §1

[3] = system: B-cell leukemia lines (NALM6, REH)
Protocol: as §1

[4] = system: multiple myeloma cell lines (MM.1S, 8226, KMS-11, U266)
Protocol: (§2) Cytotoxicity assay: Cells were incubated for 24 hr at 37° C. in 5% CO2 at which time drug treatments began and continued for 24 hr. At this time attached cells were trypsinized and combined with their respective culture media while suspension cells were directly transferred to a tube followed by centrifugation at 400 g for 5 min. The pellets were resuspended in 1 ml of Hanks solution and analyzed by Vi-Cell (Beckman Coulter, Fullerton, Calif.) cell viability analyzer.

[5] = system: non-myeloma cell lines (NALM6, 143B, MDA-MB-435, 1420)
Protocol: as §2

[6] = system: non-myeloma cell lines (NALM6, MDA-MB-435, 143B, 1420); experiment: Measurement of cytoplasmic calcium (indo-1 fluorescence ratio 400/500 nm); details: for increase in cytoplasmic Ca2+ after mitochondrial inhibitor: non-myeloma cell lines (oligomycin: all cell lines)
Protocol: (§3) Measurement of cytoplasmic calcium: Cytoplasmic Ca^2+ concentration was estimated by using the cell permeant fluorochrome indo-1-AM (Invitrogen, Carlsbad, Calif.). When excited at 355 nm, the maximum emission of indo-1 shifts from 500 nm to 400 nm following its binding to free Ca^2+. Thus, the ratio of reading at 400 nm and 500 nm correlates with concentration of cytoplasmic Ca^2+. Experiments were performed in cells loaded with indo-1 by incubating them with 2.5 μM of this fluorochrome at 37° C. for 45 min. Cells were then centrifuged at 400 g for 5 min and resuspended in their growth medium followed by distribution of 100 μl of aliquots into 96 well optical bottom plates (Nalge Nunc, Int., Rochester, N.Y.) and fluorescence was measured by Spectra Max Gemini Plus (Molecular Devices, Sunnyvale, Calif.). The average of triplicates from untreated samples was used as control reading and increase in cytoplasmic Ca^2+ was calculated as percent increase from control samples.

[7] = system: MM cell lines (MM1.S, 8226, KMS-11, U266); experiment: as above; details: for effect on mitochondrial Ca2+ uptake / cytoplasmic Ca2+ after mitochondrial inhibitor: MM cell lines; for effect on mitochondrial Ca2+ uptake: estimated from cytoplasmic Ca2+
Protocol: as §3

[8] = system: CHOP/GADD153 and cleaved caspase 3 in 4 MM cell lines; experiment: Western blot of CHOP/GADD153 and cleaved caspase 3 (UPR-mediated apoptosis); details: all 4 MM cell lines
Protocol: Western Blot analysis: Cells are plated at 10^4 cell/cm^−2 for attached cells and 3×10^5/ml for suspension cells and grown under drug treatment for the indicated times. At the end of the treatment period, cells are collected and lysed with 1% SDS in 80 mM Tris-HCL (ph 7.4) buffer supplemented with a proteinase inhibitor cocktail. DNA is fragmented by sonication and protein concentrations are measured by microBCA protein assay kit (Pierce, Rockford, Ill.). Samples are mixed with 3× Laemmli sample buffer (Cell Signaling, Danvers, Mass.) and 40 μg of protein was run on a 12% SDS-polyacrylamide gel. Gels are transferred to nitrocellulose membranes (Amersham, Piscataway, N.J.) and probed with monoclonal rabbit anti-GRP94, anti GRP-78, anti-PDI, anti-CHOP/GADD153, anti-cleaved caspase 3 (Cell Signaling, Danvers, Mass.) and monoclonal mouse anti-β-actin (Sigma, St. Louis, Mo.). Following probing, membranes are washed and incubated with HRP-conjugated secondary antibody (Invitrogen, Carlsbad, Calif.). Following addition of 1:3 diluted femto-chemiluminescent substrate (Pierce, Rockford, Ill.) membranes were exposed to blue autoradiographic film (ISC bioexpress, Kaysville, Utah). Where indicated, membranes were stripped with Stripping Buffer (Pierce, Rockford, Ill.) and reprobed with anti-β-actin (Sigma-Aldrich, St. Louis, Mo.) primary antibody. When needed, the blots were quantified using Bio-Rad gel reader which employs Quality I software (Bio-Rad, Hercules, Calif.).

[9] = system: CHOP/GADD153 and cleaved caspase 3 in MM.1S, 8226, KMS-11; experiment: Western blot of CHOP/GADD153 and cleaved caspase 3 in 3 MM cell lines; details: concentrations of FIG. 13
Protocol: . Induction of UPR-mediated apoptosis following treatment of 3 MM cell lines with four different mitochondrial inhibitors for various time points was assayed by western blot analysis of CHOP and cleaved caspase 3.
Western blot analysis: Western blots were performed. Membranes were probed with monoclonal rabbit anti-GRP94, anti GRP-78, anti-PDI, anti-CHOP/GADD153, anti-cleaved caspase 3 (Cell Signaling, Danvers, Mass., USA) and monoclonal mouse anti-β-actin (Sigma, St. Louis, Mo., USA).

[10] = system: MM (MM.1S, 8226, KMS-11) and B-cell leukemia (NALM6, REH) cell lines; experiment: ER Ca2+ leak: cytoplasmic Ca2+ (indo-1) after thapsigargine, Example 2
Protocol: Measurement of cytoplasmic and mitochondrial calcium: Cytoplasmic Ca^2+ concentration was estimated by using the cell permeant ratiometric fluorochrome indo-1-AM (Invitrogen, Carlsbad, Calif., USA) while mitochondrial Ca^2+ was measured by X-Rhod-1-AM (Invitrogen, Carlsbad, Calif., USA). In the latter assay, to normalize mitochondrial Ca^2+ signal to mitochondria number, Mitotracker Green (Invitrogen, Carlsbad, Calif., USA) fluorescence was simultaneously analyzed. Experiments were performed in cells loaded with either 2.5 μM of indo-1 or 5 μM X-rhod-1 and 250 nM of Mitotracker at 37° C. for 45 min. Cells were, then, centrifuged at 400 g for 5 min and resuspended in their growth medium followed by distribution of 100 μl of aliquots into 96 well optical bottom plates (Nalge Nunc, Int., Rochester, N.Y., USA) and fluorescence was measured by Spectra Max Gemini Plus (Molecular Devices, Sunnyvale, Calif., USA). The average of triplicates from untreated samples was used as control reading and increase in cytoplasmic or mitochondrial Ca^2+ was calculated as percent increase from control samples.
Due to the high levels of glycoprotein production in MM cells, it was investigated whether there is a greater ER Ca^2+ leak in these cells as compared to Bcells. As shown in previous reports, ER Ca^2+ leak can be assayed indirectly by measuring cytoplasmic Ca^2+ concentration following inhibition of SERCA by thapsigargine.

[11] = 24 h, at concentrations toxic to MM cell lines
[12] = 24 h, at doses toxic to MM cell lines

Compound	cytotoxicity (cell death) [2]	cytotoxicity [3, 11]	cytotoxicity (cell death) [4]	cytotoxicity [5, 12]	increase in cytoplasmic Ca2+ after mitochondrial inhibitor [6]	treatment time at which CHOP/GADD153 expression is noted [8]	CHOP/GADD153 expression relative to CCCP [9]	also measured
CC(=O)OCOC(=O)CN(CC(=O)OCOC(C)=O)c1ccccc1OCCOc1ccccc1N(CC(=O)OCOC(C)=O)CC(=O)OCOC(C)=O [BAPTA-AM]	–	–	–	–	–	–	–	reversal of CCCP induced toxicity [1]: does not reverse the toxicity of CCCP
CC(C)OC(=O)C(C)(C)Oc1ccc(C(=O)c2ccc(Cl)cc2)cc1 [fenofibrate]	significant toxicity	less toxic to B-cell leukemia lines	significant toxicity	not toxic to non-myeloma cells	–	–	–	–
CC[C@H]1/C=C/C=C/C[C@@H](C)[C@H](O)[C@@](C)(O)C(=O)[C@@H](C)[C@H](O)[C@@H](C)C(=O)[C@@H](C)[C@H](O)[C@@H](C)/C=C/C(=O)O[C@@H]2[C@H](C)[C@H](CC1)O[C@]1(CC[C@H](C)[C@H](C[C@@H](C)O)O1)[C@H]2C [oligomycin]	–	little or no toxicity	–	little or no toxicity	minimal or no effect	6 h	comparable to that induced by CCCP	effect on mitochondrial Ca2+ uptake [7]: little or no effect; cytotoxicity (cell death) ([2]; 24 h, all 3 MM cell lines): significant cell death; cytotoxic potency compared to the other mitochondrial inhibitors ([4]; 24 h, MM cells): less toxic potency in MM cells when compared to other inhibitors; cytotoxicity (cell death) ([4]; 24 h treatment, all 4 MM cell lines): significant cell death
C=C(C)[C@H]1Cc2c(ccc3c2O[C@@H]2COc4cc(OC)c(OC)cc4[C@@H]2C3=O)O1 [rotenone]	significant cell death	–	significant cell death	–	not seen in non-myeloma cell lines except for NALM6	6 h	less CHOP/GADD153 expression than CCCP	cytoplasmic Ca2+ after mitochondrial inhibitor [7]: immediate increase in cytoplasmic Ca^2+; effect on mitochondrial Ca2+ uptake [7]: equally inhibit mitochondrial Ca^2+ uptake; cytotoxicity [3]: little or no toxicity; cytotoxic potency compared to the other mitochondrial inhibitors [4]: equipotency in inducing cytotoxicity in MM cells; cytotoxicity [5]: little or no toxicity
C/C=C(/C)C(=O)O[C@H]1C(C)=C2[C@H]([C@@H]1OC(=O)CCCCCCC)[C@@](C)(OC(C)=O)C[C@H](OC(=O)CCC)[C@@]1(O)[C@H]2OC(=O)[C@@]1(C)O [thapsigargine]	sensitive	resistant	sensitive	resistant	–	–	–	order of ER Ca2+ leak after thapsigargine ([10]; MM cell lines): MM1.S>8226>KMS-11; cytoplasmic Ca2+ concentration at new equilibrium ([10]; after 30 min, MM versus B-cell leukemias): all 3 MM cell lines had significantly greater cytoplasmic Ca^2+ concentration than the 2 B-cell leukemias; cytoplasmic Ca2+ concentration ([10]; within 5 min after addition, all five cell lines): significantly increases; cytoplasmic Ca2+ after thapsigargine ([6]; 143B and 1420, 30 min. after addition): significantly increases; cytoplasmic Ca2+ after thapsigargine ([6]; NALM6 and MDA-MB-435): little or no change; cytoplasmic Ca2+ increase after thapsigargine in 8226 ([7]; 8226 compared to KMS-11 or U266): increase less than that observed in KMS-11 or U266 cell lines; lag before increase in cytoplasmic Ca2+ ([7]; U266 (printed U226) cell line): ~20 min; cytoplasmic Ca2+ concentration after thapsigargine ([7]; immediately after addition, MM1.S, 8226 and KMS-11): significantly increases; order of sensitivity among MM cell lines ([4]; 24 h treatment): MM.1S>8226>KMS-11>U266
Cc1c(C)c2c(c(C)c1O)CCC(C)(COc1ccc(CC3SC(=O)NC3=O)cc1)O2 (stereo not drawn) [troglitazone]	significant toxicity	less toxic to B-cell leukemia lines	significant toxicity	not toxic to non-myeloma cells	–	–	–	–
Z-VAD	–	–	–	–	–	–	–	reversal of CCCP induced toxicity [1]: can reverse the majority of CCCP toxicity
antimycin A	significant cell death	–	significant cell death	–	not seen in non-myeloma cell lines except for NALM6	6 h	comparable to that induced by CCCP	cytoplasmic Ca2+ after mitochondrial inhibitor [7]: immediate increase in cytoplasmic Ca^2+; cytotoxicity [3]: little or no toxicity; cytotoxic potency compared to the other mitochondrial inhibitors [4]: less toxic than these two mitochondrial inhibitors; cytotoxicity [5]: little or no toxicity
